Laboratory results taken from US20230114728A1 (Venatorx Pharmaceuticals, Inc., priority 2019, published 2023).
pEC50: −log10 of the molar value. Values after ≈ are worked out from the molar mass of the structure shown.

What was measured:
A. baumannii PBP1a = A. baumannii PBP1a (Acinetobacter baumannii, UniProt A0ABX6CK30); test: Bocillin-FL fluorescence polarization competition binding assay, A. baumannii PBP1a; conditions: fluorescence polarization competition binding assay using Bocillin-FL; column 1; read-out: A. baumannii PBP1a Potency
A. baumannii PBP1a, sequence (A0ABX6CK30 entry or part of it): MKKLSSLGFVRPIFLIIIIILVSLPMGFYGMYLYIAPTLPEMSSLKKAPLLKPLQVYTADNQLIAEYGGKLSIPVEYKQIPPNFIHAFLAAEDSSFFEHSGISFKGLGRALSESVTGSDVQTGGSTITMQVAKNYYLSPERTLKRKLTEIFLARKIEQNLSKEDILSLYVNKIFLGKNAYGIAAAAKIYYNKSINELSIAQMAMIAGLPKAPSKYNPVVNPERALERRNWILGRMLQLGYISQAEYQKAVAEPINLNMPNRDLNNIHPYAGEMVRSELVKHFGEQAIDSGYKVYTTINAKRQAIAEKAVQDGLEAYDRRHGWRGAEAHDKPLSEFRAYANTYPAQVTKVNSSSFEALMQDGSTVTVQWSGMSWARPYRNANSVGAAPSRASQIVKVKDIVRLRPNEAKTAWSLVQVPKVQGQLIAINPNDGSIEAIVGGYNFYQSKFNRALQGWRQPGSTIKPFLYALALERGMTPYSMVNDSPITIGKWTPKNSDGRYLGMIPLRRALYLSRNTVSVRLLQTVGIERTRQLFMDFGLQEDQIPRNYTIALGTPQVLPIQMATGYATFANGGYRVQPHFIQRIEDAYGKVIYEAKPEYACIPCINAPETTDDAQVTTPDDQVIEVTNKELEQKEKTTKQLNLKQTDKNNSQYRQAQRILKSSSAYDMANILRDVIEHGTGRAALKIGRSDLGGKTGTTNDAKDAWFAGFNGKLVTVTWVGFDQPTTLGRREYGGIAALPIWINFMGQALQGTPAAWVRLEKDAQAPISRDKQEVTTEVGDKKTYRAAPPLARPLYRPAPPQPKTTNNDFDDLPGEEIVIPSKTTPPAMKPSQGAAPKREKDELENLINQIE

[1] = tested on: A. baumannii IL123 (ABΔ3-ARAEcPore); test: Broth microdilution MIC in iron-depleted CAMHB (IDM); format: cell-based; conditions: Acinetobacter baumannii, read-out: Minimum Inhibitory Concentration, IL-2123
Summary of the method: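 Colonies grow 3-5 h in iron-depleted broth at 37° C, are adjusted by OD600 to give 2-8×10^5 CFU/mL, and are added to 2-fold serial compound dilutions. After 16-20 h (Pseudomonas) or 20-24 h (Acinetobacter) at 37° C, the lowest concentration with no visible growth is the MIC.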

SMILES	pEC50 (A. baumannii PBP1a)	MIC [1] [µg/mL]
CCN1CCN(C(=O)N[C@@H](C(=O)N[C@H]2Cc3cccc(C(=O)O)c3OB2O)c2c(O)cc(O)cc2F)C(=O)C1=O (single isomer, unassigned) [Example 182]	< 4.00	–
CS(=O)(=O)N1CCN(C(=O)N[C@@H](C(=O)N[C@H]2Cc3ccc(F)c(C(=O)O)c3OB2O)c2cc(F)c(O)c(O)c2Cl)C1=O (single isomer, unassigned) [Example 189]	< 4.00	–
O=C(NCCCN1CCN(C(=O)NC(C(=O)N[C@H]2Cc3cccc(C(=O)O)c3OB2O)c2ncc(O)cc2F)C(=O)C1=O)c1ccc(O)c(O)c1Cl (stereo partly drawn) [Example 1, (3R)-3-(2-(4-(3-(2-chloro-3,4-dihydroxybenzamido)propyl)-2,3-dioxopiperazine-1-carboxamido)-2-(3-fluoro-5-hydroxypyridin-2-yl)acetamido)-2-hydroxy-3,4-dihydro-2H-benzo[e][1,2]oxaborinine-8-carboxylic acid]	4.52 to 5.00	0.5 to 1 (≈ 0.673 to 1.35 µM)
C[C@H]1CN(CCNC(=O)c2ccc(O)c(O)c2Cl)C(=O)C(=O)N1C(=O)NC(C(=O)N[C@H]1Cc2cccc(C(=O)O)c2OB1O)c1ncc(O)cc1F (stereo partly drawn) [Example 2, (3R)-3-(2-((S)-4-(2-(2-chloro-3,4-dihydroxybenzamido)ethyl)-6-methyl-2,3-dioxopiperazine-1-carboxamido)-2-(3-fluoro-5-hydroxypyridin-2-yl)acetamido)-2-hydroxy-3,4-dihydro-2H-benzo[e][1,2]oxaborinine-8-carboxylic acid]	4.52 to 5.00	–
O=C(NCCCN1CCN(C(=O)NC(C(=O)N[C@H]2Cc3ccc(F)c(C(=O)O)c3OB2O)c2ncc(O)cc2F)C(=O)C1=O)c1ccc(O)c(O)c1Cl (stereo partly drawn) [Example 3, (3R)-3-(2-(4-(3-(2-chloro-3,4-dihydroxybenzamido)propyl)-2,3-dioxopiperazine-1-carboxamido)-2-(3-fluoro-5-hydroxypyridin-2-yl)acetamido)-7-fluoro-2-hydroxy-3,4-dihydro-2H-benzo[e][1,2]oxaborinine-8-carboxylic acid]	4.00 to 4.52	–
Nc1nc(C(NC(=O)N2CCN(CCNC(=O)c3ccc(O)c(O)c3Cl)C(=O)C2=O)C(=O)N[C@H]2Cc3ccc(F)c(C(=O)O)c3OB2O)c(F)s1 (stereo partly drawn) [Example 4, (3R)-3-(2-(2-amino-5-fluorothiazol-4-yl)-2-(4-(2-(2-chloro-3,4-dihydroxybenzamido)ethyl)-2,3-dioxopiperazine-1-carboxamido)acetamido)-7-fluoro-2-hydroxy-3,4-dihydro-2H-benzo[e][1,2]oxaborinine-8-carboxylic acid]	–	32 to 64 (≈ 42.6 to 85.1 µM)
O=C(NCCN1CCN(C(=O)NC(C(=O)N[C@H]2Cc3ccc(F)c(C(=O)O)c3OB2O)c2ncc(O)cc2F)C(=O)C1=O)c1c(F)cc(O)c(O)c1Cl (stereo partly drawn) [Example 5, (3R)-3-(2-(4-(2-(2-chloro-6-fluoro-3,4-dihydroxybenzamido)ethyl)-2,3-dioxopiperazine-1-carboxamido)-2-(3-fluoro-5-hydroxypyridin-2-yl)acetamido)-7-fluoro-2-hydroxy-3,4-dihydro-2H-benzo[e][1,2]oxaborinine-8-carboxylic acid]	4.52 to 5.00	2 to 4 (≈ 2.61 to 5.23 µM)
Nc1nc(/C(=N/OC[C@H](NC(=O)c2ccc(O)c(O)c2Cl)C(=O)O)C(=O)N[C@H]2Cc3cccc(C(=O)O)c3OB2O)cs1 [Example 6, (R)-3-((Z)-2-(2-aminothiazol-4-yl)-2-(((S)-2-carboxy-2-(2-chloro-3,4-dihydroxybenzamido)ethoxy)imino)acetamido)-2-hydroxy-3,4-dihydro-2H-benzo[e][1,2]oxaborinine-8-carboxylic acid]	–	32 to 64 (≈ 50.5 to 101 µM)
NCCCN1CCN(C(=O)N[C@@H](C(=O)N[C@H]2Cc3cc(Cl)c(F)c(C(=O)O)c3OB2O)c2c(F)cc(O)c(O)c2Cl)C(=O)C1=O [Example 190, (R)-3-((R)-2-(4-(3-aminopropyl)-2,3-dioxopiperazine-1-carboxamido)-2-(2-chloro-6-fluoro-3,4-dihydroxyphenyl)acetamido)-6-chloro-7-fluoro-2-hydroxy-3,4-dihydro-2H-benzo[e][1,2]oxaborinine-8-carboxylic acid]	< 4.00	–
CCN1CCN(C(=O)N[C@@H](C(=O)N[C@H]2Cc3cc(Cl)c(F)c(C(=O)O)c3OB2O)c2c(F)cc(O)c(O)c2Cl)C(=O)C1=O [Example 191, (R)-6-chloro-3-((R)-2-(2-chloro-6-fluoro-3,4-dihydroxyphenyl)-2-(4-ethyl-2,3-dioxopiperazine-1-carboxamido)acetamido)-7-fluoro-2-hydroxy-3,4-dihydro-2H-benzo[e][1,2]oxaborinine-8-carboxylic acid]	< 4.00	–
